Source: paper PMC8280778, “^18F-ASEM Imaging for Evaluating Atherosclerotic Plaques Linked to α7-Nicotinic Acetylcholine Receptor” (Frontiers in Bioengineering and Biotechnology, 2021)
Read-outs that look alike come from different tables or passages of the source.

Legend:
[1] = target: α7nAChR; parameters: method as in Gao et al., 2013; Wang et al., 2018; conditions: affinity for α7nAChR; ref Gao et al., 2013; Wang et al., 2018; cited from earlier work
[2] = target: α7nAChR (Mus musculus, UniProt P49582)
Procedure: ApoE^–/– mice (n = 4; weight, 25–30 g) and normal mice (n = 4; weight, 25–30 g) were randomly selected; the chosen ApoE^–/– mice were fed with 21% fat and 0.15% cholesterol supplement for 11–12 weeks.
The high-performance liquid chromatography (HPLC)-purified ^18F-ASEM [[…], dissolved in 0.2 ml normal saline, containing 5% dimethyl sulfoxide (DMSO)] was injected into tail vein of ApoE^–/– mice and normal mice. ApoE^–/– mice, positioned prone position, were anesthetized (1–2% isoflurane) through inhalation. After anesthesia, mice were injected with 5.56 MBq (150 μCi) ^18F-ASEM through the tail vein and underwent a dynamic imaging for 1 h. Dynamic PET scanning were carried out at 5, 10, 15, 30, and 60 min after injection, and biological distributions were analyzed as previously described by our group ([Wang et al., 2021]). Briefly, the regions of interest (ROIs) were cycled from 3D ordered subset expectation maximization (OSEM 3D) reconstruction images, then % ID/g value was calculated by Inveon Research Workplace 4.0 (IRW4.0).

[3] = test system: α7nAChR; parameters: method as in Gao et al., 2013; Wang et al., 2018; conditions: specificity for α7nAChR; ref Gao et al., 2013; Wang et al., 2018; cited from earlier work
[4] = target: T1, α7nAChR (Oryctolagus cuniculus, UniProt A0A0H4CUK0); test: PET/CT imaging of abdominal aorta atherosclerotic plaques in New Zealand rabbits; type: in vivo; conditions: model rabbits, PET/CT 30 min after injection
T1 construct: from tissue; host or cells: living New Zealand rabbits (abdominal aorta with atherosclerotic plaques)
Procedure: New Zealand rabbits (n = 4; weight, 2.5–3.0 kg) were fed with high-fat diet for 14 weeks. The balloon-sprained and injured experiment was carried out at the third week after 2 weeks of high-fat diet. First, rabbits were anesthetized by 10% chloral hydrate, a 3-cm incision was conducted in the right inguinal area to expose the right femoral artery; then, the right femoral artery was punctured by Seldinger technique. Second, an angiographic catheter with double lumen balloon was sent to the aortic arch under fluoroscopy. Third, the balloon was bulged and pulled down to the bifurcation of the distal iliac artery of the abdominal aorta for three times. Lastly, the catheter and sheath were removed, and the operational incisions were sutured (Figure 2).
First, rabbits (n = 4) were anesthetized by 10% chloral hydrate (2 ml/kg). Then, ^18F-ASEM solution (74 MBq in 0.2 ml normal saline) was injected into the right ear vein of rabbits. After that, the imaging procedure was conducted 30 min after injection of ^18F-ASEM and lasted for 10 min performed by PET/CT (Discovery IQ 2.0 GE). The injection of ^18F-FDG (74 MBq in 0.2 ml normal saline) and PET/CT imaging were performed in the same strategy on the next day. The reconstruction mode was super iterative. The % ID/g value was worked out in the same protocol as mentioned above through IRW 4.0 software.

[5] = biological distribution of the tracer in normal mice (dynamic PET); type: in vivo

Sequence of α7nAChR (Mus musculus, UniProt P49582) (P49582 23-502): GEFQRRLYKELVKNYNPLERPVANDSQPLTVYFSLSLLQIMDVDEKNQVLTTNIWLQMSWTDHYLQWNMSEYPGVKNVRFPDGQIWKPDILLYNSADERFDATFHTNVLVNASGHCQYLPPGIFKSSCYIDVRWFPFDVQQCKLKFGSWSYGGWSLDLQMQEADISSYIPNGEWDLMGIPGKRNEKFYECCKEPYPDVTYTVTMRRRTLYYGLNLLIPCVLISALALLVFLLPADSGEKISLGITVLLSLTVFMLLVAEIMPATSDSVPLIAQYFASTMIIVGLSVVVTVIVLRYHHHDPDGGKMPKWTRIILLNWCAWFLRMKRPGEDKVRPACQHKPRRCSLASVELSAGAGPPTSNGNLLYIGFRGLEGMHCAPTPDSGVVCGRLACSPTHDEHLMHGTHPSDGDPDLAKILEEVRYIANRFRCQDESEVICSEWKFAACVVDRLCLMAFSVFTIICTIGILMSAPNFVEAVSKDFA
T1 sequence (A0A0H4CUK0 25-504): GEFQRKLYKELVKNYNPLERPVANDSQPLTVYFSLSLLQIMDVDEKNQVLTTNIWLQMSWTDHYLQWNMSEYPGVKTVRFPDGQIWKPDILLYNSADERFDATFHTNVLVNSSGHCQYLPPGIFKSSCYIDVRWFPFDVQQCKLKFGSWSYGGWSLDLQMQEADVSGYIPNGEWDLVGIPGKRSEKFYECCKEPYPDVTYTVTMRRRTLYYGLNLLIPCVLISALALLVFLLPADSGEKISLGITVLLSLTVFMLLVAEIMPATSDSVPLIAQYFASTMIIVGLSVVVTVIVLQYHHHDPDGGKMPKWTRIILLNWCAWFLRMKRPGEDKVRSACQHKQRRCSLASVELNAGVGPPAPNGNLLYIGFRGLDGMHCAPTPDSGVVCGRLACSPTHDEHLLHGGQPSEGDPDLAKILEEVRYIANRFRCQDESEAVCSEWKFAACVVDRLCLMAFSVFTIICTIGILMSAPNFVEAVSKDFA

O=S1(=O)c2cc(N3CCN4CCC3CC4)ccc2-c2cccc(F)c21 [^18F-ASEM]
Ki [1]: 400 pM

^18F-FDG
uptake in the carotid artery (PET imaging) ([2]; mouse, in vivo): slight

O=S1(=O)c2cc(N3CCN4CCC3CC4)ccc2-c2cccc([18F])c21 [^18F-ASEM]
BPND [3]: 3.9–6.6 | uptake in plaques at abdominal arterial scratches zones [4]: remarkable uptake | time of peak uptake in the kidney ([5]; after injection): 5 min | time of peak uptake in the liver ([5]; after injection): 15 min | uptake in the muscle ([5]; compared with other organs): lowest uptake | uptake in the arteries ([2]; ApoE–/– mice): 4.05 ± 0.64 ID%/g | uptake in the arteries ([2]; ApoE–/– mice, 5 min after injection): 4.39 ± 1.08 ID%/g | uptake in the arteries ([2]; ApoE–/– mice, 15 min after injection): 4.20 ± 0.46 ID%/g | uptake in the arteries ([2]; ApoE–/– mice, 60 min after injection): 3.80 ± 0.43 ID%/g | uptake in the carotid artery (PET imaging) ([2]; ApoE–/– mouse): more ^18F-ASEM gathering | uptake in the arteries ([2]; control group mice): 2.40 ± 0.41 ID%/g | uptake in the arteries ([2]; control group mice, 5 min after injection): 2.35 ± 0.58 ID%/g | uptake in the arteries ([2]; control group mice, 15 min after injection): 2.46 ± 0.34 ID%/g | uptake in the arteries ([2]; control group mice, 60 min after injection): 2.70 ± 0.28 ID%/g | PET signal in the normal group ([2]; normal mice): no signal
